Results reported in patent US20250127719A1, “ANISAMIDE-CONTAINING LIPIDS AND COMPOSITIONS AND METHODS OF USE THEREOF” (The Trustees Of The University Of Pennsylvania, priority 2021, published 2025).

What was measured:
[1] = tested on: activated 3T3-GFP fibroblasts; assay: High-throughput screening of LNPs: GFP knockdown, plate reader; type: cell-based, murine; details: 50 nM siGFP, 48 h post-treatment
Protocol: High-throughput screening of LNPs was performed by evaluating GFP knockdown efficiency in 96-well plates using a plate reader assay. 3T3-GFP cells were re-suspended in DMEM containing 10 ng/ml of TGF-β, and seeded into a 96-well plate at a density of 5,000 cells per well. After 24 h, activated cells were treated with various LNPs loaded with siGFP (50 nM). At 48 h post-treatment, the GFP signal in each well was obtained using an Infinite M Plex plate reader (Tecan, Morrisville, NC, USA) with an excitation of 488 nm and an emission of 520 nm. Cell viability was measured using a CellTiter-Glo Luminescent Cell Viability Assay according to the manufacturer's instruction (G7572, Promega).

[2] = tested on: activated 3T3-GFP fibroblasts; assay: Second-round screening: dependency on sigma receptor-mediated transfection (haloperidol pre-treatment); type: cell-based, murine; details: 30 μM haloperidol 2 h, then 50 nM siGFP LNP 48 h
Protocol: The top-performing LNPs were subjected to a second round of screening by evaluating their dependency on sigma receptor-mediated transfection. Activated 3T3-GFP cells were treated with or without haloperidol (30 μM) for 2 h before various LNPs loaded with siGFP (50 nM) were used to treat these cells for another 48 h. The GFP signal in each well was obtained as described above.

[3] = siRNA encapsulation efficiency, RiboGreen RNA assay; type: physicochemical; details: weight ratio of AA-T3A-C12:siRNA 10:1
Protocol: (§1) The hydrodynamic diameter, polydispersity index (PDI), and zeta potential of LNPs were measured using a Zetasizer Nano ZS90 (Malvern Instruments, Malvern, UK). The morphology of LNPs was characterized by transmission electron microscopy (JEOL 1010, Tokyo, Japan). The siRNA-LNP complex was analyzed by agarose gel electrophoresis. siRNA encapsulation efficiency was determined using a modified Quant-iT RiboGreen RNA assay (Invitrogen) as previously described. The pKa of LNP was determined by 6-(p-toluidinyl)naphthalene-2-sulfonic acid (TNS) assay as previously described.

[4] = Gel retardation assay (agarose gel electrophoresis); type: physicochemical; details: weight ratio of AA-T3A-C12:siRNA above 5:1; 500 ng siRNA per lane
Protocol: FIGS. 11A-11B depict optimization of the weight ratio of AA-T3A-C12 to siRNA. FIG. 11A: gel retardation assay. LNPs with different weight ratios of AA-T3A-C12:siRNA were analyzed by 1% agarose gel electrophoresis. 500 ng siRNA was loaded into each lane. […] FIG. 11B: RiboGreen RNA assay. The siRNA encapsulation efficiency reached a plateau of ˜90% when the weight ratio of AA-T3A-C12:siRNA was 10:1. Data are presented as mean±SD (n=3).
as §1

SMILES | GFP knockdown [1] | change of GFP silencing activity after haloperidol (HP) treatment [2] | siRNA encapsulation efficiency plateau [3] | free siRNA in gel retardation assay [4]
CCCCCCCCCCC(O)CN(CCN(CCNC(=O)c1ccc(OC)cc1)CCN(CC(O)CCCCCCCCCC)CC(O)CCCCCCCCCC)CC(O)CCCCCCCCCC (stereo not shown) [AA-110-C12] | ~70% | – | – | –
CCCCCCCCCCC(O)CN(CCCN(CCCNC(=O)c1ccc(OC)cc1)CCCN(CC(O)CCCCCCCCCC)CC(O)CCCCCCCCCC)CC(O)CCCCCCCCCC (stereo not shown) [AA-T3A-C12, N-(3-(bis(3-(bis(2-hydroxydodecyl)amino)propyl)amino)propyl)-4-methoxybenzamide] | – | the most significant loss of activity | ~90% | Little to no free siRNA was observed
